Measured values published in US20180133221A1, “ADMINISTRATION OF UBIQUITIN-ACTIVATING ENZYME INHIBITOR AND CHEMOTHERAPEUTIC AGENTS” (Millennium Pharmaceuticals, Inc., priority 2014, published 2018).

Assays:
[1] = test system: Calu-6 non-small cell lung cancer xenograft; assay: Calu-6 xenograft model, Compound 1 and docetaxel; type: in vivo, nude mice; details: for Tumor Volume Day 21: in mm³ (unit assumed)
Experimental: Calu-6 is a non-small cell lung cancer cell-lined derived xenograft model. Nine week old female nude mice (Taconic Farms, Inc) were inoculated subcutaneously in the flank (cell suspension) with 4.0×10^6 Calu-6 cells suspended in serum free MEM. […] Docetaxel (Henry Schein, Inc., Pittsburgh Pa.) is formulated in 0.9% saline and administered by intravenous injection (IV) once weekly (QW) at 5 mg/kg or 10 mg/kg. […] Tumors were measured twice weekly using vernier calipers.

[2] = test system: PHTX-14B breast xenograft; assay: PHTX-14B xenograft model, Compound 1 and docetaxel; type: in vivo, nude mice; details: for Tumor Volume Day 28: in mm³ (unit assumed)
Experimental: Docetaxel (Henry Schein, Inc., Pittsburgh Pa.) is formulated in 0.9% saline and administered by intravenous injection (IV) once weekly (QW) at 5 mg/kg or 10 mg/kg. […] Tumors were measured twice weekly using vernier calipers.

## NS(=O)(=O)OC[C@H]1C[C@@H](Nc2ccnc3cc(-c4cccc(SC(F)(F)F)c4)nn23)[C@H](O)[C@@H]1O [Compound 1, ((1R,2R,3S,4R)-2,3-dihydroxy-4-(2-(3-(trifluoromethylthio)phenyl)pyrazolo[1,5-a]pyrimidin-7-ylamino)cyclopentyl)methyl sulfamate]
[1]; 5 mg/kg Compound 1 BIWx3 IV
  Tumor Volume Day 21: 1302.2
[1]; 10 mg/kg Compound 1 BIWx3 IV
  Tumor Volume Day 21: 1346.4
[1]; 15 mg/kg Compound 1 BIWx3 IV
  Tumor Volume Day 21: 1072.4
[1]; single agent Compound 1 IV at 5, 10 and 20 mg/kg IV BIW
  anti-tumor responses compared to the vehicle control: modest anti-tumor responses
[2]; 10 mg/kg Compound 1 BIWx3 SC
  Tumor Volume Day 28: 499.4
[2]; 20 mg/kg Compound 1 BIWx3 SC
  Tumor Volume Day 28: 399.4
[2]; single agent Compound 1 SC at 20 and 10 mg/kg BIW
  tumor growth compared to the vehicle control group: inhibited tumor growth
